Data: patent publication US9884842B2, “Combretastatin analogs” (The Board of Trustees of the University of Arkansas, priority 2013, dated 2018)

Assays:
[1] = tested on: OVCAR-3; assay: cells; conditions: Homo sapiens
[2] = tested on: CAKI-1; assay: NCI growth inhibition and cytotoxicity screen, Renal Cancer panel; conditions: Homo sapiens
[3] = tested on: UACC-62; assay: NCI growth inhibition and cytotoxicity screen, Melanoma panel; conditions: Homo sapiens
[4] = tested on: NCI-H460; assay: NCI growth inhibition and cytotoxicity screen, Lung Cancer panel; conditions: Homo sapiens
[5] = tested on: K-562; assay: NCI growth inhibition and cytotoxicity screen, Leukemia panel; conditions: Homo sapiens, K562, read-out: LC50
[6] = tested on: M14; assay: NCI growth inhibition and cytotoxicity screen, Melanoma panel; conditions: Homo sapiens
[7] = tested on: UO-31; assay: NCI growth inhibition and cytotoxicity screen, Renal Cancer panel; conditions: Homo sapiens
[8] = tested on: MOLT-4; assay: NCI growth inhibition and cytotoxicity screen, Leukemia panel; conditions: Homo sapiens
[9] = tested on: HL-60(TB); assay: cells; conditions: Homo sapiens
[10] = tested on: OVCAR-5; assay: NCI growth inhibition and cytotoxicity screen, Ovarian Cancer panel; conditions: Homo sapiens
[11] = tested on: OVCAR-4; assay: as above; conditions: Homo sapiens
[12] = tested on: 786-0; assay: NCI growth inhibition and cytotoxicity screen, Renal Cancer panel; conditions: Homo sapiens
[13] = tested on: SK-OV-3; assay: NCI growth inhibition and cytotoxicity screen, Ovarian Cancer panel; conditions: Homo sapiens
[14] = tested on: MDA-MB-435; assay: NCI growth inhibition and cytotoxicity screen, Melanoma panel; conditions: Homo sapiens
[15] = tested on: SF-268; assay: NCI growth inhibition and cytotoxicity screen, CNS Cancer panel; conditions: Homo sapiens
[16] = tested on: SNB-75; assay: as above; conditions: Homo sapiens
[17] = tested on: SNB-19; assay: as above; conditions: Homo sapiens
[18] = tested on: NCI-H322M; assay: NCI growth inhibition and cytotoxicity screen, Lung Cancer panel; conditions: Homo sapiens
[19] = tested on: T-47D; assay: NCI growth inhibition and cytotoxicity screen, Breast Cancer panel; conditions: Homo sapiens, T47D
[20] = tested on: MCF7; assay: as above; conditions: Homo sapiens
[21] = tested on: NCI/ADR-RES; assay: NCI growth inhibition and cytotoxicity screen, Ovarian Cancer panel; conditions: Homo sapiens
[22] = tested on: HCC-2998; assay: NCI growth inhibition and cytotoxicity screen, Colon Cancer panel; conditions: Homo sapiens
[23] = tested on: IGROV1; assay: NCI growth inhibition and cytotoxicity screen, Ovarian Cancer panel; conditions: Homo sapiens
[24] = tested on: HCT-15; assay: NCI growth inhibition and cytotoxicity screen, Colon Cancer panel; conditions: Homo sapiens
[25] = tested on: COLO 205; assay: as above; conditions: Homo sapiens
[26] = tested on: U251; assay: NCI growth inhibition and cytotoxicity screen, CNS Cancer panel; conditions: Homo sapiens
[27] = tested on: NCI-H23; assay: NCI growth inhibition and cytotoxicity screen, Lung Cancer panel; conditions: Homo sapiens
[28] = tested on: TK-10; assay: NCI growth inhibition and cytotoxicity screen, Renal Cancer panel; conditions: Homo sapiens
[29] = tested on: HS 578T; assay: NCI growth inhibition and cytotoxicity screen, Breast Cancer panel; conditions: Homo sapiens
[30] = tested on: HOP-92; assay: NCI growth inhibition and cytotoxicity screen, Lung Cancer panel; conditions: Homo sapiens
[31] = tested on: MDA-MB-231/ATCC; assay: NCI growth inhibition and cytotoxicity screen, Breast Cancer panel; conditions: Homo sapiens

COc1cc(/C=C/c2cc3ccccc3o2)cc(OC)c1OC [Formula (I)(c)]
GI50 ([1]; OVCAR-3): 0.42 nM | CC50 ([1]; OVCAR-3, read-out: LC50): 48100 nM | GI50 ([2]; CAKI-1): 0.58 nM | CC50 ([2]; CAKI-1, read-out: LC50): > 100000 nM | GI50 ([3]; UACC-62): 0.5 nM | CC50 ([3]; UACC-62, read-out: LC50): > 100000 nM | GI50 ([4]; NCI-H460): 0.41 nM | CC50 ([4]; NCI-H460, read-out: LC50): > 100000 nM | CC50 [5]: > 100000 nM | GI50 ([6]; M14): 0.47 nM | CC50 ([6]; M14, read-out: LC50): 88400 nM | GI50 ([7]; UO-31): 1.15 nM | CC50 ([7]; UO-31, read-out: LC50): > 100000 nM | GI50 ([8]; MOLT-4): 0.85 nM | CC50 ([8]; MOLT-4, read-out: LC50): > 100000 nM | GI50 ([9]; HL-60): 0.35 nM | CC50 ([9]; HL-60, read-out: LC50): > 100000 nM | GI50 ([10]; OVCAR-5): 2.94 nM | CC50 ([10]; OVCAR-5, read-out: LC50): > 100000 nM | GI50 ([11]; OVCAR-4): 1.15 nM | CC50 ([11]; OVCAR-4, read-out: LC50): > 100000 nM | GI50 ([12]; 786-0): 0.85 nM | CC50 ([12]; 786-0, read-out: LC50): 79800 nM | GI50 ([13]; SK-OV-3): 0.65 nM | CC50 ([13]; SK-OV-3, read-out: LC50): > 100000 nM | GI50 ([14]; MDA-MB-435): 0.078 nM | CC50 ([14]; MDA-MB-435, read-out: LC50): > 100000 nM | GI50 ([15]; SF-268): 0.86 nM | CC50 ([15]; SF-268, read-out: LC50): > 100000 nM | GI50 ([16]; SNB-75): 0.47 nM | CC50 ([16]; SNB-75, read-out: LC50): > 100000 nM | GI50 ([17]; SNB-19): 0.58 nM | CC50 ([17]; SNB-19, read-out: LC50): > 100000 nM | GI50 [18]: 15.9 nM | CC50 ([18]; read-out: LC50): > 100000 nM | GI50 [19]: 0.69 nM | CC50 ([19]; read-out: LC50): > 100000 nM | GI50 ([20]; MCF7): 0.37 nM | CC50 ([20]; MCF7, read-out: LC50): > 100000 nM | GI50 [21]: 0.51 nM | CC50 ([21]; read-out: LC50): > 100000 nM | GI50 ([22]; HCC 2998): 3.34 nM | CC50 ([22]; HCC 2998, read-out: LC50): > 100000 nM | GI50 ([23]; IGROV-1): 0.8 nM | CC50 ([23]; IGROV-1, read-out: LC50): > 100000 nM | GI50 ([24]; HCT-15): 0.4 nM | CC50 ([24]; HCT-15, read-out: LC50): > 100000 nM | GI50 ([25]; COLO 205): 0.4 nM | CC50 ([25]; COLO 205, read-out: LC50): 19500 nM | GI50 ([26]; U-251): 0.66 nM | CC50 ([26]; U-251, read-out: LC50): 81200 nM | GI50 ([27]; NCI-H23): 3.09 nM | CC50 ([27]; NCI-H23, read-out: LC50): > 100000 nM | GI50 ([28]; TK-10): 8.4 nM | CC50 ([28]; TK-10, read-out: LC50): > 100000 nM | GI50 [29]: 0.49 nM | CC50 ([29]; read-out: LC50): > 100000 nM | GI50 ([30]; HOP-92): 0.17 nM | CC50 ([30]; HOP-92, read-out: LC50): > 100000 nM | GI50 ([31]; MDA-MB-231): 1.17 nM | CC50 ([31]; MDA-MB-231, read-out: LC50): > 100000 nM
